Melting point data for 87 compounds are collected here from a melting point compilation (Tetko et al.; mined from patent text by program, amines drawn as free bases though some values may be those of a salt).

Consider `Cc1oc(-c2ccco2)nc1COc1ccc(CO)cc1Br`, for which the melting point was 141 to 142 °C.
With `CC(=O)N1CC(CCN2CC=C(c3ccccc3)CC2)c2cc3c(cc21)OCO3` (configuration not stated) the figure was 90 to 91 °C; with `COC(=O)C1=CC(C(=O)c2ccc(OCc3ccccc3)c(C)c2O)=CN2CCc3c([nH]c4ccccc34)C12C(=O)OC` (configuration not stated), 216 °C; with `O=C(Cl)c1c(-c2ccccc2)nn2c1-c1ccccc1CC2`, 109 to 110 °C.
With `COC(=O)c1ccc(Cn2c(=O)c(-c3c(Cl)cccc3Cl)cc3cnc(N)nc32)cc1` the figure was 235 to 237 °C; with `CC(C)(C)OC(=O)NCCCCn1cnc2c(Cl)nc3ccccc3c21`, 148 to 150 °C; with `N#CC(C#N)=C1Sc2cnn(-c3ccccc3)c(=O)c2S1`, 240 °C.
Under `CN1CCN(C2=Nc3ccccc3Cc3nccn32)CC1` stands 123 to 124 °C.
The compound `CC=C(Cc1ccccc1)NNC(=O)OC(C)(C)C` gave a melting point of 76 to 79 °C.
Take `COc1ccccc1NC(=O)Nc1nc(N(CCC(=O)O)Cc2ccc(Cl)c(Cl)c2)nc(=O)[nH]1`: the melting point was 188 °C.
Under `Cn1c(CC(=O)O)cc2ccc3ccsc3c(=O)c21` stands 185 to 188 °C.
With `COc1ccc(NN=C2C(=O)Nc3ccc(C4=NNC(=O)SC4C)cc32)cc1` (configuration not stated) the figure was 273 °C.
Under `CSc1ccc(C2OC(=O)NC2O)cc1` (configuration not stated) stands 130 to 131 °C.
In the case of `Cc1noc(NS(=O)(=O)c2ccccc2-c2ccc(C(F)(F)F)cc2)c1C`, the melting point was in the range of 57 to 62 °C.
With `CN1C(=O)N(CC(COc2ccc(-c3ccc(Cl)cc3)cc2)N(O)C=O)C(=O)C1(C)C` (configuration not stated) the figure was 124 to 125 °C.
With `Cn1nc2c(-c3ccc(Cl)cc3Cl)cccc2c1-c1nnco1` the figure was 199 to 201 °C; with `O=C(Nc1cc(C(F)(F)F)cc(C(F)(F)F)c1)Nc1cc(C(F)(F)F)ccc1Oc1ccccc1C(=O)O`, 229 to 231 °C.
Turning to `COc1ccc(-c2cc3nc(CNCC(C)O)c4ccccc4c3nn2)cc1` (configuration not stated), the melting point was 147 to 149 °C.
With `O=C(OC1CCCCC1)C(c1ccccc1)n1cnc2[nH]ncc2c1=O` (configuration not stated) the figure was 176 to 180 °C; with `CC(C)(C)OC(=O)NN(Cc1ccccc1)C[C@H](O)[C@H](Cc1ccccc1)NC(=O)OCc1ccccc1`, 142 to 143 °C.
In the case of `C/C(=C\c1cccc2ccccc12)C(=O)O`, the melting point was determined as 155 °C.
With `COc1ccc(S(=O)(=O)N(c2ccc(Cl)cc2Cc2c(F)cccc2F)C(C)CO)cc1OC` (configuration not stated) the figure was 169 °C; with `CCCCn1c(SC(CC)C(N)=O)nc2c1c(=O)[nH]c(=O)n2C` (configuration not stated), 253 °C.
With `CCCC1(Cl)Cc2cc(OCC(=O)O)c(Cl)c(Cl)c2C1=O` (configuration not stated) the figure was 185 to 187 °C; with `COS(=O)(=O)Cc1cccc(-c2nc(=O)c3ccccc3s2)n1`, 102 °C.
With `Nc1ncc(-c2cc(N3CCOCC3)nc(-n3c(C(F)F)nc4ccccc43)n2)cn1` the figure was 281 to 285 °C.
As to `CC(O)C(Oc1ccc(NC(=O)NC(=O)c2ccccc2Cl)cc1)c1ccccc1` (configuration not stated), the melting point fell in the range of 142 to 144 °C.
For `CCOC(=O)C1=C(N)NC2=C(C(=O)CCC2)C1c1ccccc1C#N` (configuration not stated), the melting point was 165 °C.
With `CCOC(=O)C1=C(CO)NC(C)=C(C(=O)OCCOCc2ccccc2)C1c1cccc([N+](=O)[O-])c1` (configuration not stated) the figure was 112 to 114 °C; with `COC(=O)c1ccccc1C(=O)NN(C(=S)Nc1ccccc1)C(C)C`, 145 to 147 °C.
`CNc1ccc(N2CCC(C)CC2)c(C(=O)c2ccc(Cl)cc2)c1` showed a melting point of 177 °C.
As to `CC1Oc2ccccc2C(O)C1n1ccnc1` (configuration not stated), the melting point lay within 160 to 175 °C.
In the case of `Cc1c(O)cnn(C(C)(C)C)c1=O`, the melting point was 236 to 239 °C.
With `CC(=O)N(NC(N)=S)c1ccc([N+](=O)[O-])cc1` the figure was 242 °C.
Under `CC(C)c1c(C(=O)Nc2ccccc2)c(-c2ccccc2)c(-c2ccc(F)cc2)n1CCC(O)CC(O)CC(=O)N(c1ccccc1)c1ccccc1` (configuration not stated) stands 228 to 233 °C; under `O=C(O)Cn1cc(Cl)c(-c2cc(Cl)cc(Cl)c2)n1`, 182 °C.
With `CC(C)(C)OC(=O)N1CCC(c2cc(F)ccc2F)(S(=O)(=O)c2ccc(Cl)cc2)CC1` the figure was 101 to 106 °C; with `CC(COc1ccc(CC2SC(=O)N(C(c3ccccc3)(c3ccccc3)c3ccccc3)C2=O)cc1)NC(=O)OC(C)(C)C` (configuration not stated), 153 to 157 °C.
In the case of `COCC(O)c1cccc(S(N)(=O)=O)c1` (configuration not stated), the melting point is 109 °C.
Under `Nc1nc(-c2ccc(Cl)cc2)nc(N2CCCC2)n1` stands 217 to 219 °C; under `OCC1CCc2cc(OCc3ccccc3)ccc2O1` (racemic), 80 to 82 °C.
With `CCCc1c(OCCCCCCc2cccc(OCCCCCCCC(=O)O)c2CCC(=O)O)ccc2c1OCCC2=O` the figure was 79 to 81 °C; with `CCc1cc2c(s1)-n1c(C)nnc1C(CCCC(=O)Nc1ccccc1)N=C2c1ccc(Cl)cc1` (configuration not stated), 238 to 240 °C.
With `CCCc1c(C(=O)C(C)C)c2ccc(C(N)=O)cc2n1Cc1ccccc1NC(C)=O` the figure was 235 to 236 °C; with `COc1ccc(C(=O)NC(C)(C#N)c2ccccn2)cc1` (configuration not stated), 173 °C; with `O=C(NNS(=O)(=O)c1ccccc1)c1cc2ccccc2o1`, 164 to 167 °C.
Regarding `CCN(CC)C(=O)Oc1cc(-c2cccs2)nc2ccccc12`, the melting point was 72 °C.
Under `Cn1c(C(F)(F)F)cc(=O)n(-c2ccc3snc(CS(=O)(=O)CC(=O)O)c3c2)c1=O` stands 215 °C; under `O=C1Nc2cc(Cl)c(Cl)cc2C1=O`, 271 to 272 °C; under `O=C(Nc1ccc(C2CCCCC2)cc1)c1ncccc1O`, 91 to 93 °C.
Under `CCCCCCCCCCCCCCOc1ccc(N)cc1` stands 65 to 68 °C; under `CCS(=O)(=O)N(C)[C@@H]1c2cc(C#N)ccc2OCC[C@H]1O` (relative stereo), 142 to 144 °C; under `FC(F)(F)CNC(=S)NCc1ccc(OC(F)(F)F)cc1`, 94.7 to 96.4 °C.
Under `C#CCOCCn1c(CN2CCCN(C)CC2)nc2ccccc21` stands 133 to 136 °C.
Compound `Cc1occc1S(=O)(=O)C(C)(Cc1ccccc1)C(=O)NO` (configuration not stated) displayed a melting point of 68 to 70 °C.
Under `Cc1nc2ccc(Cl)cc2nc1Cl` stands 194 to 196 °C.
With `Nc1ccc(Cl)cc1C(O)(C#CC1CC1)C(F)(F)F` (configuration not stated) the figure was 141 to 143 °C.
Turning to `O=C(O)C1CNC(C(=O)O)c2[nH]c3ccc(F)cc3c21` (configuration not stated), the melting point lay in the range of 233 to 234 °C.
With `CC(C)(C)OC(=O)NCCNS(=O)(=O)c1cc([N+](=O)[O-])c(Cl)s1` the figure was 116 °C; with `Cc1nc(N2CCN(CC(C)C)C2=O)sc1C(=O)NCc1cnn(C)c1`, 155 to 158 °C.
In turn, `Cc1c(N2C[C@H](CF)[C@H](N)C2)c(F)cc2c(=O)c(C(=O)O)cn(C3CC3)c12` came in with a melting point of 160 to 165 °C.
As to `Cc1cc(C)nc(S(=O)(=O)Nc2c(C)cccc2Cl)n1`, the melting point is 215 to 219 °C.
Under `CCOC(=O)C=Cc1ccc([N+](=O)[O-])c(OC)c1` stands 119 to 120 °C; under `CC(=O)Nc1ccc(OCC(O)CNC(C)(C)C)c(C2=NNC(=O)CC2)c1` (configuration not stated), 102 to 109 °C; under `O=C(CCCCBr)NC(=O)C1CC1`, 114 to 115 °C.
With `O=C(NOC1CCCCO1)c1ccc(C(=O)Nc2cccc(Nc3nc(-c4cccnc4)cs3)c2)cc1` (configuration not stated) the figure was 224 °C.
Under `CN(C)CCCOc1ccc(Nc2nccc(-c3cccnc3)n2)cc1` stands 85 to 87 °C.
For `CCOC(=O)C1(CC(=O)Nc2cccnc2)N=C(c2ccc(Cl)cc2)c2c(sc(C)c2C)-n2c(C)nnc21` (configuration not stated), the melting point was 133 to 135 °C.
Regarding `CN(C)C(C)(C)c1ccc(-c2nc(Nc3ccc(F)cc3)ncc2C#N)cc1`, the melting point came to 179 °C.
Under `Cn1cc(-c2ncc(-c3ccc4cc(OCc5nnn[nH]5)ccc4c3)o2)c2ccccc21` stands 254 to 256 °C.
Under `CS(=O)(=O)c1cc(-c2ccccc2)ncn1` stands 109 to 111 °C; under `COc1cc(OC)c2c(C)c(CCOS(C)(=O)=O)c(=O)oc2c1`, 170 to 172 °C.
Take `COC(=O)c1c(NCc2ccc(OC)c(Cl)c2)nc(N2CCC(O)CC2)nc1N1CCn2ccnc2C1`: the melting point was in the range of 191 to 194 °C.
With `N#CC1=CC(CF)(CF)Oc2ccc([N+](=O)[O-])cc21` the figure was 136 to 137 °C; with `CN1CCN(C2=Nc3ccccc3Cn3cccc32)CC1`, 139 to 141 °C.
For the compound `Cn1cc(-c2ccc(Cl)cc2)c(=O)c(-c2cccc(C(F)(F)F)c2)c1`, the melting point lay in the range of 153 to 155 °C.
With `O=C(O)CC[C@H](NCC(O)C(O)C(O)C(O)CO)C(=O)O` (some centres not stated) the figure was 94 °C; with `COc1ccc(-n2cc(C#N)c(=O)[nH]c2=O)c(C)c1`, 276 to 278 °C.
With `CCNC(=O)COc1cc2c(c(Cl)c1Cl)C(=O)C(C)(C(C)C)C2` (configuration not stated) the figure was 146 °C; with `CC(C)(C)c1cc(CCc2ccccc2NC(=O)NC2CCN(Cc3ccc(F)cc3)CC2)cc(C(C)(C)C)c1O`, 174 to 175 °C; with `Cc1sc(CCc2ccc(CO)cc2)nc1-c1ccccc1`, 62 to 63 °C.
Under `CN(CN1C(=O)c2ccccc2C1=O)c1c(S(=O)C(F)(F)F)c(C#N)nn1-c1c(Cl)cc(C(F)(F)F)cc1Cl` (configuration not stated) stands 163 °C; under `CN(N)c1nc2ccccc2s1`, 137 to 139 °C; under `Cn1cc(-c2cc(-c3cnc4c(c3)CC(=O)N4)ccn2)n(-c2ccc(C(C)(C)C#N)cc2)c1=O`, 263 °C.
Turning to `COc1ccc(C2Cc3c(cccc3C(F)(F)F)NC(=O)C2=O)cc1` (configuration not stated), the melting point fell in the range of 221 to 223 °C.
`CN(C)c1cc(Oc2cccc(C(F)(F)F)c2)nc(C(=O)O)c1` yielded a melting point of 61 to 66 °C.
As to `Nc1sc2c(c1C(=O)c1ccc(Cl)s1)CCCC2`, the melting point was 173 to 175 °C.
